Assay results: patent publication US8519149B2, “Tricyclic compounds as mPGES-1 inhibitors” (Glenmark Pharmaceuticals S.A., priority 2010, dated 2013)

Target: T1, Recombinant human mPGES-1 (Homo sapiens, UniProt O14684)
T1 sequence (O14684 1-152): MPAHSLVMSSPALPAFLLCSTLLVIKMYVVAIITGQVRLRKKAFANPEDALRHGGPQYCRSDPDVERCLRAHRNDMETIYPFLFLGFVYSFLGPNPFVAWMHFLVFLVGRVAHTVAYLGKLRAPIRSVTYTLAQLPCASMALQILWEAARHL
Test: In-vitro mPGES-1 enzyme inhibition assay (PGE2 formation from PGH2, HTRF detection)
Assay type: biochemical
Conditions: for inhibition at 1 µM: 1 μM test compound, read-out: Percentage inhibition at 1 μM; for inhibition at 1 µM / inhibition at 10 µM: recombinant human mPGES-1 microsomal fraction; for inhibition at 10 µM: 10 μM test compound, read-out: Percentage inhibition at 10 μM; for IC50: class symbols, selected examples
Method in brief: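 Crude microsomal fractions containing recombinant human mPGES-1 (40-60 μg/mL protein) convert PGH2 to PGE2 in the presence of reduced glutathione, with 0.5% final DMSO. Reaction stopped with stannous chloride, and PGE2 measured by anti-PGE2 antibody (HTRF) detection. IC50 by nonlinear regression of % inhibition versus uninhibited enzyme control.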

| Compound | inhibition at 1 µM [%] | inhibition at 10 µM [%] | IC50 [nM] |
| --- | --- | --- | --- |
| Cc1cc2c(o1)c(C(=O)Nc1ccccc1F)cc1nc(Nc3c(Cl)cccc3Cl)[nH]c12 [Example-67, 2-[(2,6-Dichlorophenyl)amino]-N-(2-fluorophenyl)-7-methyl-1H-furo[3,2-e]benzimidazole-5-carboxamide] | 92.8 | 96.2 |  |
| CC(O)CNC(=O)c1cc2nc(Nc3c(Cl)cccc3Cl)[nH]c2c2c1OC(C)(C)C2 (centres unmarked) [Example-43, 2-[(2,6-Dichlorophenyl)amino]-N-(2-hydroxypropyl)-7,7-dimethyl-7,8-dihydro-1H-furo[3,2-e]benzimidazole-5-carboxamide] | 43.8 | 72.3 | < 50 |
| Cc1cc2c(o1)c(C(=O)Nc1ccc(Br)cc1)cc1nc(Nc3c(Cl)cccc3Cl)[nH]c12 [Example-66, N-(4-Bromophenyl)-2-[(2,6-dichlorophenyl)amino]-7-methyl-1H-furo[3,2-e]benzimidazole-5-carboxamide] | 96.4 | 95.2 | < 50 |
| CC1(C)Cc2c(c(C(=O)Nc3ccccc3C(F)(F)F)cc3nc(Nc4c(Cl)cccc4Cl)[nH]c23)O1 [Example-75, 2-[(2,6-Dichlorophenyl)amino]-7,7-dimethyl-N-[2-(trifluoromethyl)phenyl]-7,8-dihydro-1H-furo[3,2-e]benzimidazole-5-carboxamide] | 94.8 | 95 | < 50 |
| CC1(C)Cc2c(c(C(=O)Nc3ccccc3F)cc3nc(Nc4c(Cl)cccc4Cl)[nH]c23)O1 [Example-30, 2-[(2,6-Dichlorophenyl)amino]-N-(2-fluorophenyl)-7,7-dimethyl-7,8-dihydro-1H-furo[3,2-e]benzimidazole-5-carboxamide] | 93.8 | 92.5 | < 50 |
| CC1(C)Cc2c(c(C(=O)NC3CCCCC3)cc3nc(Nc4c(Cl)cccc4Cl)[nH]c23)O1 [Example-7, N-Cyclohexyl-2-[(2,6-dichlorophenyl)amino]-7,7-dimethyl-7,8-dihydro-1H-furo[3,2-e]benzimidazole-5-carboxamide] | 100 | 96.2 | < 50 |
| CC1(C)Cc2c(c(C(=O)NNc3ccc(Br)cc3)cc3nc(Nc4c(Cl)cccc4Cl)[nH]c23)O1 [Example-74] | 93.4 | 94.7 | 50 to 100 |
| CC1(C)Cc2c(c(C(=O)NN3CCCC3)cc3nc(Nc4c(Cl)cccc4Cl)[nH]c23)O1 [Example-58, 2-[(2,6-Dichlorophenyl)amino]-7,7-dimethyl-N-(pyrrolidin-1-yl)-7,8-dihydro-1H-furo[3,2-e]benzimidazole-5-carboxamide] | 63.3 | 95.4 |  |
| CC1(C)Cc2c(c(C(=O)NCC(F)(F)F)cc3nc(Nc4c(Cl)cccc4Cl)[nH]c23)O1 [Example-62, 2-[(2,6-Dichlorophenyl)amino]-7,7-dimethyl-N-(2,2,2-trifluoroethyl)-7,8-dihydro-1H-furo[3,2-e]benzimidazole-5-carboxamide] | 96.8 | 94.3 |  |
| CC1(C)Cc2c(c(C(=O)NCCF)cc3nc(Nc4c(Cl)cccc4Cl)[nH]c23)O1 [Example-63, 2-[(2,6-Dichlorophenyl)amino]-N-(2-fluoroethyl)-7,7-dimethyl-7,8-dihydro-1H-furo[3,2-e]benzimidazole-5-carboxamide] | 88 | 96.6 | 50 to 100 |
| CC1(C)Cc2c(c(C(=O)Nc3ccccc3Br)cc3nc(Nc4c(Cl)cccc4Cl)[nH]c23)O1 [Example-72, N-(2-Bromophenyl)-2-[(2,6-dichlorophenyl)amino]-7,7-dimethyl-7,8-dihydro-1H-furo[3,2-e]benzimidazole-5-carboxamide] | 93.2 | 93.7 | < 50 |

Further lines, results first:

| inhibition at 1 µM [%] | inhibition at 10 µM [%] | IC50 [nM] | Compound |
| --- | --- | --- | --- |
| 77 | 97.4 |  | CC1(C)Cc2c(c(C(=O)Nc3ccc(C(F)(F)F)c[n+]3[O-])cc3nc(Nc4c(F)cccc4Cl)[nH]c23)O1 [Example-158, 2-(2-((2-Chloro-6-fluorophenyl)amino)-7,7-dimethyl-7,8-dihydro-1H-benzofuro[4,5-d]imidazole-5-carboxamido)-5-(trifluoromethyl)pyridine 1-oxide] |
| 66 | 76.4 |  | CC1(C)Cc2c(c(C(=O)NCC(F)(F)C(F)(F)F)cc3nc(Nc4ccc(F)cc4Cl)[nH]c23)O1 [Example-94, 2-[(2-Chloro-4-fluorophenyl)amino]-7,7-dimethyl-N-(2,2,3,3,3-pentafluoropropyl)-7,8-dihydro-1H-furo[3,2-e]benzimidazole-5-carboxamide] |
| 95.3 | 100 | < 50 | Cc1ccnc(Cl)c1Nc1nc2cc(C(=O)Nc3cccc(C(F)(F)F)c3)c3c(c2[nH]1)CC(C)(C)O3 [Example-137, 2-((2-Chloro-4-methylpyridin-3-yl)amino)-7,7-dimethyl-N-(3-(trifluoromethyl)phenyl)-7,8-dihydro-1H-benzofuro[4,5-d]imidazole-5-carboxamide] |
| 99.4 | 100 | < 50 | CC1(C)Cc2c(c(C(=O)Nc3cc(F)c(F)cc3F)cc3nc(Nc4c(Cl)cncc4Cl)[nH]c23)O1 [Example-199, 2-((3,5-Dichloropyridin-4-yl)amino)-7,7-dimethyl-N-(2,4,5-trifluorophenyl)-7,8-dihydro-1H-benzofuro[4,5-d]imidazole-5-carboxamide] |
| 87.9 | 99.8 | > 100 | Cn1c(Nc2c(F)cccc2Cl)nc2cc(C(=O)Nc3ccc(C(F)(F)F)c[n+]3[O-])c3c(c21)CC(C)(C)O3 [Example-155, 2-(2-((2-Chloro-6-fluorophenyl)amino)-1,7,7-trimethyl-7,8-dihydro-1H-benzofuro[4,5-d]imidazole-5-carboxamido)-5-(trifluoromethyl)pyridine 1-oxide] |
| 59.5 | 60.4 |  | CC1(C)Cc2c(c(C(=O)Nc3cc(C(F)(F)F)ccc3F)cc3nc(NCc4ccccc4Cl)[nH]c23)O1 [Example-145, 2-((2-Chlorobenzyl)amino)-N-(2-fluoro-5-(trifluoromethyl)phenyl)-7,7-dimethyl-7,8-dihydro-1H-benzofuro[4,5-d]imidazole-5-carboxamide] |
| 9.35 | 46.2 |  | Cc1ccc(Nc2nc3cc(C(=O)Nc4ccccc4C(F)(F)F)c4c(c3[nH]2)CC(C)(C)O4)c(C)n1 [Example-106] |
| 62.3 | 80.8 |  | COc1cc(OC)cc(-c2noc(-c3cc4nc(Nc5c(Cl)cccc5Cl)[nH]c4c4c3OC(C)(C)C4)n2)c1 [Example-162, N-(2,6-Dichlorophenyl)-5-(3-(3,5-dimethoxyphenyl)-1,2,4-oxadiazol-5-yl)-7,7-dimethyl-7,8-dihydro-1H-benzofuro[4,5-d]imidazol-2-amine] |
| 81.2 | 89.5 | > 100 | Cc1nc2c(o1)c(C(=O)Nc1ccc(C(C)(C)C#N)cc1)cc1nc(Nc3c(Cl)cccc3Cl)[nH]c12 [Example-190, N-[4-(2-Cyanopropan-2-yl)phenyl]-7-[(2,6-dichlorophenyl)amino]-2-methyl-8H-imidazo[4,5-e][1,3]benzoxazole-4-carboxamide] |
| 93.9 | 96.3 | < 50 | Cc1cccc(Cl)c1Nc1nc2cc(C(=O)Nc3ccc(C(F)(F)F)cc3)c3c(c2[nH]1)CC(C)(C)O3 [Example-108, 2-[(2-Chloro-6-methylphenyl)amino]-7,7-dimethyl-N-[4-(trifluoromethyl)phenyl]-7,8-dihydro-1H-furo[3,2-e]benzimidazole-5-carboxamide] |
| 33.1 | 92.2 |  | CC(C)c1noc(-c2cc3nc(Nc4c(F)cccc4Cl)[nH]c3c3c2OC(C)(C)C3)n1 [Example-156, N-(2-Chloro-6-fluorophenyl)-5-(3-isopropyl-1,2,4-oxadiazol-5-yl)-7,7-dimethyl-7,8-dihydro-1H-benzofuro[4,5-d]imidazol-2-amine] |
| 97.6 | 98 | < 50 | CC1(C)Cc2c(c(C(=O)Nc3ccc(C(F)(F)F)cn3)cc3nc(Nc4c(Cl)cccc4Cl)[nH]c23)O1 [Example-101, 2-[(2,6-Dichlorophenyl)amino]-7,7-dimethyl-N-[5-(trifluoromethyl)pyridin-2-yl]-7,8-dihydro-1H-furo[3,2-e]benzimidazole-5-carboxamide] |
| 37.3 | 46 |  | CC1(C)Cc2c(c(C(=O)Nc3cccc(C(F)(F)F)c3)cc3nc(NCc4ccccc4Cl)[nH]c23)O1 [Example-144, 2-((2-Chlorobenzyl)amino)-7,7-dimethyl-N-(3-(trifluoromethyl)phenyl)-7,8-dihydro-1H-benzofuro[4,5-d]imidazole-5-carboxamide] |
| 97.1 | 96.5 | < 50 | Cc1cccc(Cl)c1Nc1nc2cc(C(=O)Nc3cc(F)c(F)cc3F)c3c(c2[nH]1)CC(C)(C)O3 [Example-192, 2-((2-Chloro-6-methylphenyl)amino)-7,7-dimethyl-N-(2,4,5-trifluorophenyl)-7,8-dihydro-1H-benzofuro[4,5-d]imidazole-5-carboxamide] |
| 89.5 | 93.9 | < 50 | CCCCCCNC(=O)c1cc2nc(Nc3c(Cl)cccc3Cl)[nH]c2c2nc(C)oc12 [Example-181, 7-[(2,6-Dichlorophenyl)amino]-N-hexyl-2-methyl-8H-imidazo[4,5-e][1,3]benzoxazole-4-carboxamide] |
